# Assay results: paper PMC10800876, “Evaluation of proline-rich antimicrobial peptides as potential lead structures for novel antimycotics against Cryptococcus neoformans” (Frontiers in Microbiology, 2024)
# Like-named read-outs stand apart in the source and are kept apart here. Non-standard residues stand in square brackets, D forms with d. Residues, ends and D or L forms follow the SMILES beside them. Ac6c = NC1(C(=O)O)CCCCC1
# Experiments:
# [1] = system: C. neoformans KN99α (serotype A, mating type MATα); assay: microbe, parasite or virus in culture; details: Cryptococcus neoformans
# [2] = system: C. neoformans H99 (serotype A); assay: microbe, parasite or virus in culture; details: Cryptococcus neoformans
# [3] = system: C. neoformans KN99α; assay: Antifungal activity assay (CFU on SAB agar); type: cell-based, Cryptococcus neoformans; details: treatment 3 h, 30 °C, mean ± SD, n = 4; for cell count C. neoformans KN99α, 24 h: CFU counted after 24 h; for cell count C. neoformans KN99α, 48 h: CFU counted after 48 h
# [4] = system: C. neoformans 1841; assay: Antifungal activity assay (CFU on SAB agar); type: cell-based, Cryptococcus neoformans; details: treatment 3 h, 30 °C, mean ± SD, n = 4; for cell count C. neoformans 1841, 24 h: CFU counted after 24 h; for cell count C. neoformans 1841, 48 h: CFU counted after 48 h
# [5] = system: C. neoformans 1841 (serotype D); assay: microbe, parasite or virus in culture; details: Cryptococcus neoformans
# [6] = system: HepG2 and HEK293 cell lines; assay: Cytotoxicity (MTT), for both cell lines; type: cell-based, human
# Experimental: Human embryonic kidney (HEK293) and human hepatoma (HepG2) cells were cultured in Dulbecco’s modified Eagle’s/Ham’s F-12 medium (DMEM/F-12) containing 10% (v/v) fetal bovine serum and 1% (v/v) penicillin/streptomycin. Cells (20,000 in 200 μL per well) were seeded into a 96-well plate (polystyrene F-bottom, Greiner Bio-One GmbH) and incubated for 24 h (37°C, 5% CO2). Cells were washed with PBS (100 μL) and peptide solutions (0.6 g/L in DMEM/F-12) were added. The positive control was a dilution series from 12 to 1.5% (v/v) DMSO and the negative control was 12% (v/v) PBS. After incubation (37°C, 24 h, 5% CO2), the supernatant was discarded, fresh medium (90 μL/well) and MTT (10 μL/well, 5 g/L in PBS) were added, and the plate was incubated for 4 h (37°C, 5% CO2). A solution (100 μL) of sodium dodecyl sulfate (10% (v/v)) in hydrochloric acid (10 mmol/L) was added and the plate was incubated again for 24 h (37°C, 5% CO2). Absorbance was recorded at 570 nm relative to the reference at 650 nm ([…] ™ microplate reader). All samples were corrected for the background absorbance of the medium. Relative cell viability was calculated as the ratio of absorbances recorded for treated and untreated cells ([Kolano et al., 2021]; [Brakel et al., 2022a],[b]).
# [7] = system: C. neoformans strains 1841, H99, and KN99α; assay: Broth microdilution assay (MIC); type: cell-based, Cryptococcus neoformans
# [8] = system: C. neoformans H99; assay: Antifungal activity assay (CFU on SAB agar); type: cell-based, Cryptococcus neoformans; details: treatment 3 h, 30 °C, mean ± SD, n = 4; for cell count C. neoformans H99, 24 h: CFU counted after 24 h; for cell count C. neoformans H99, 48 h: CFU counted after 48 h
# [9] = system: C. neoformans H99 (serotype A)
# [10] = system: C. neoformans 1841; assay: Time-kill assay; type: cell-based, Cryptococcus neoformans; details: 2.5 μmol/L, 30°C, triplicates
# Experimental: The kinetic effects of the antifungal activity were determined by diluting overnight cultures to 5 × 10^4 CFU/mL with 50% SAB in phosphate buffer. Aqueous peptide solutions (20 μL) were added to the cell suspension (80 μL) to give a final peptide concentration of 2.5 μmol/L. Samples were incubated at 30°C on an orbital shaker (750 rpm, Titramax 1,000, Heidolph Instruments GmbH & Co. KG) for 24 h. Before incubation (0 min) and after 45 min, 90 min, 3 h, 6 h, and 24 h incubation, aliquots (10 μL) of samples were taken and diluted with phosphate buffer (10 mmol/L, pH 7.5) to observe countable cell colonies. Aliquots (100 μL) of the diluted cell suspensions were plated on SAB agar plates. Plates were incubated at 30°C and colonies were counted after 24 h.
# [11] = system: C. neoformans 1841 (serotype D)
# [12] = system: C. neoformans strains 1841, H99, and KN99α; assay: Antifungal activity assay (CFU); type: cell-based, Cryptococcus neoformans; details: peptide concentrations ≥2.5 μmol/L, no colonies visible even after 48 h
# [13] = system: C. neoformans KN99α (serotype A, mating type MATα)
# [14] = system: C. neoformans; details: cited from earlier work
# Text: Moreover, these drugs have tremendous side effects due to their high toxicity, particularly kidney damage. In general, the dev ...
# [15] = system: in vitro translation; details: ref Seefeldt et al., 2016; cited from earlier work
# Experimental: The putative intracellular mode of action is a very significant finding, supported by CLSM images showing fluorescence in the cytoplasmic region after incubation of C. neoformans with Cf-labeled PrAMPs (Figure 4; Supplementary Figure S3). At this point, we can only speculate about potential targets, such as the ribosomes at the endoplasmic reticulum, which is the primary target of PrAMPs in bacteria, i.e., the 70S ribosome ([Krizsan et al., 2014], [2015a],[b]; [Seefeldt et al., 2015]; [Graf et al., 2017]). […] However, ...
Molecule,"cell count C. neoformans KN99α, 24 h ([3]; 0.25 µmol/L)","cell count C. neoformans KN99α, 48 h ([3]; 0.25 µmol/L)","cell count C. neoformans KN99α, 24 h ([3]; 2.5 µmol/L)","cell count C. neoformans KN99α, 48 h ([3]; 2.5 µmol/L)","cell count C. neoformans KN99α, 24 h ([3]; 25 µmol/L)","cell count C. neoformans KN99α, 48 h ([3]; 25 µmol/L)","cell count C. neoformans 1841, 24 h ([4]; 0.25 µmol/L)","cell count C. neoformans 1841, 48 h ([4]; 0.25 µmol/L)","cell count C. neoformans 1841, 24 h ([4]; 2.5 µmol/L)","cell count C. neoformans 1841, 48 h ([4]; 2.5 µmol/L)","cell count C. neoformans 1841, 24 h ([4]; 25 µmol/L)","cell count C. neoformans 1841, 48 h ([4]; 25 µmol/L)","cell count C. neoformans H99, 24 h ([8]; 0.25 µmol/L)","cell count C. neoformans H99, 48 h ([8]; 0.25 µmol/L)","cell count C. neoformans H99, 24 h ([8]; 2.5 µmol/L)","cell count C. neoformans H99, 48 h ([8]; 2.5 µmol/L)","cell count C. neoformans H99, 24 h ([8]; 25 µmol/L)","cell count C. neoformans H99, 48 h ([8]; 25 µmol/L)",further results
"C[C@@H]1[C@H](O)[C@@H](C)/C=C/C=C/C=C/C=C/C=C/C=C/C=C/[C@H](O[C@@H]2O[C@H](C)[C@@H](O)[C@H](N)[C@@H]2O)C[C@@H]2O[C@](O)(C[C@@H](O)C[C@@H](O)[C@H](O)CC[C@@H](O)C[C@@H](O)CC(=O)O[C@H]1C)C[C@H](O)[C@H]2C(=O)O [Amphotericin B, reference compound]",2.4 ± 1.5 x 10^4 CFU/mL,2.5 ± 1.7 x 10^4 CFU/mL,0.1 ± 0.1 x 10^4 CFU/mL,0.1 ± 0.1 x 10^4 CFU/mL,0.0 ± 0.0 x 10^4 CFU/mL,0.0 ± 0.0 x 10^4 CFU/mL,1.4 ± 0.3 x 10^4 CFU/mL,1.4 ± 0.3 x 10^4 CFU/mL,0.0 ± 0.0 x 10^4 CFU/mL,0.0 ± 0.0 x 10^4 CFU/mL,0.0 ± 0.0 x 10^4 CFU/mL,0.0 ± 0.0 x 10^4 CFU/mL,0.9 ± 0.7 x 10^4 CFU/mL,1.1 ± 0.7 x 10^4 CFU/mL,0.0 ± 0.0 x 10^4 CFU/mL,0.0 ± 0.0 x 10^4 CFU/mL,0.0 ± 0.0 x 10^4 CFU/mL,0.0 ± 0.0 x 10^4 CFU/mL,"MIC ([1]; 24 h, read-out: MIC (mg/L) KN99α 24 h): 0.08 mg/L; MIC ([1]; 24 h, read-out: MIC (μmol/L) KN99α 24 h): 0.09 µmol/L; MIC ([1]; 48 h, read-out: MIC (mg/L) KN99α 48 h): 0.16 mg/L; MIC ([1]; 48 h, read-out: MIC (μmol/L) KN99α 48 h): 0.17 µmol/L; MIC ([2]; 24 h, read-out: MIC (mg/L) H99 24 h): < 0.02 mg/L; MIC ([2]; 24 h, read-out: MIC (μmol/L) H99 24 h): < 0.02 µmol/L; MIC ([2]; 48 h, read-out: MIC (mg/L) H99 48 h): 0.04 to 0.08 mg/L; MIC ([2]; 48 h, read-out: MIC (μmol/L) H99 48 h): 0.04 to 0.09 µmol/L; MIC ([5]; 24 h, pH 7.5, read-out: MIC (μmol/L) 1841 24 h): 0.06 to 0.23 µmol/L; MIC ([5]; 24 h, read-out: MIC (mg/L) 1841 24 h): 0.06 to 0.12 mg/L; MIC ([5]; 48 h, pH 7.5, read-out: MIC (μmol/L) 1841 48 h): 0.13 µmol/L; MIC ([5]; 48 h, read-out: MIC (mg/L) 1841 48 h): 0.12 mg/L; cytotoxicity ([6]; 125 mg/L, 24 h): strong cytotoxicity; MIC [7]: < 0.2 µg/mL; MIC ([7]; Cryptococcus neoformans, read-out: MIC): < 0.22 µM"
CC(C)C[C@H](NC(=O)[C@H](Cc1ccc(O)cc1)NC(=O)[C@@H]1CCCN1C(=O)[C@H](CCCNC(=N)N)NC(=O)[C@@H]1CCCN1C(=O)[C@H](CCCCN)NC(=O)[C@H](CCCCN)NC(=O)[C@@H]1CCCN1C(=O)[C@H](CCCNC(=N)N)NC(=O)C1(N)CCCCC1)C(=O)N1CCC[C@H]1C(=O)N[C@@H](CCCNC(=N)N)C(=O)N1CCC[C@H]1C(=O)N[C@@H](CCCNC(=N)N)C(=O)N1CCC[C@H]1C(=O)N1CCC[C@H]1C(=O)N[C@@H](CCCNC(=N)N)C(=O)N1CCC[C@H]1C(=O)N[C@H](C(=O)N[C@@H](CCCNC(=N)N)C(N)=O)C(C)C [Chex1Arg20 D4K] (H-[Ac6c]RPKKPRPYLPRPRPPRPVR-NH2; N-terminus assumed),2.0 ± 1.2 x 10^4 CFU/mL,2.2 ± 1.1 x 10^4 CFU/mL,0.1 ± 0.1 x 10^4 CFU/mL,0.1 ± 0.1 x 10^4 CFU/mL,0.8 ± 1.3 x 10^4 CFU/mL,0.8 ± 1.3 x 10^4 CFU/mL,0.4 ± 0.0 x 10^4 CFU/mL,2.2 ± 0.3 x 10^4 CFU/mL,0.0 ± 0.0 x 10^4 CFU/mL,0.0 ± 0.0 x 10^4 CFU/mL,0.0 ± 0.0 x 10^4 CFU/mL,0.0 ± 0.0 x 10^4 CFU/mL,2.7 ± 0.4 x 10^4 CFU/mL,2.9 ± 0.4 x 10^4 CFU/mL,0.0 ± 0.0 x 10^4 CFU/mL,0.1 ± 0.0 x 10^4 CFU/mL,0.0 ± 0.0 x 10^4 CFU/mL,0.0 ± 0.0 x 10^4 CFU/mL,"MIC (μmol/L) H99 24 h ([9]; H99 (serotype A, 24 h)): 1.6 µmol/L; MIC (μmol/L) H99 48 h ([9]; H99 (serotype A, 48 h)): 1.6 µmol/L; incubation time after which no viable cells were detected [10]: 45 min; MIC (μmol/L) 1841 24 h ([11]; 1841 (serotype D, 24 h, pH 7.5)): 1.6 µmol/L; MIC (μmol/L) 1841 48 h ([11]; 1841 (serotype D, 48 h, pH 7.5)): 1.6 µmol/L; suppression of fungi, colonies after 48 h [12]: completely suppressed the fungi; MIC (μmol/L) KN99α 24 h ([13]; KN99α (serotype A, mating type MATα, 24 h)): 1.6 µmol/L; MIC (μmol/L) KN99α 48 h ([13]; KN99α (serotype A, mating type MATα, 48 h)): 1.6 µmol/L; peptide concentration used in cytotoxicity test relative to MIC (safety margin) [6]: 150 fold; MIC ([7]; strains 1841, H99, and KN99α, 24 h): 1.6 µM"
N=C(N)NCCCCC(=O)Nc1cc(C(F)(F)F)cc(NC(=O)c2cc(C(=O)Nc3cc(C(F)(F)F)cc(NC(=O)CCCCNC(=N)N)c3O[C@@H]3CCNC3)ncn2)c1O[C@@H]1CCNC1 [brilacidin],–,–,–,–,–,–,–,–,–,–,–,–,–,–,–,–,–,–,"MIC against C. neoformans ([14]; ref Dos Reis et al., 2023): 2.5 µM"
"Bac7 (1-35): mammalian PrAMP fragment, literature (RRIRPRPPRLPRPRPRPLPFPRPGPRPIPRPLPFP; Bactenecin 7; UniProt P19661 131-165, looked up, fragment)",–,–,–,–,–,–,–,–,–,–,–,–,–,–,–,–,–,–,"IC50 in eukaryotic in vitro translation system relative to the E. coli system [15]: 2.5 fold; MIC against C. neoformans ([14]; ref Benincasa et al., 2004, Conti et al., 2013): ≥ 4 µM"
